A short description of data set [1]: RP-HPLC retention time (hydrophobicity). The format is physicochemical. Conditions: stated to reliably reflect the hydrophobicity in aqueous solution, assessed and provided by GenScript. The procedure: GenScript (Piscataway, NJ, USA) carried out the custom synthesis of USCLs by using high efficient solid phase peptide synthesis. The fatty acid was conjugated to the N-terminus of the peptide using the same procedure followed to attach protected amino acids to the growing peptide chain for synthesis. The purity (>90%), sequence and molecular weight of USCLs were assessed and provided by GenScript using RP-HPLC and ESI-MS. USCLs were dissolved in sterile water or DMSO at 10 mg/mL, according to manufacturer's indications.

Data set [2] concerns P. aeruginosa ATCC 27853. The format is cell-based, Pseudomonas aeruginosa. The source says:
(§1) Bacteria used in this study were Escherichia coli ATCC 25922 and O18K1H7, Staphylococcus aureus ATCC 25923 and ATCC 29213, Pseudomonas aeruginosa ATCC 27853, Staphylococcus epidermidis ATCC 12228, Enterococcus faecalis ATCC 29212, Bacillus subtilis DSM 4181, Listeria monocytogenes DSM 20600, Salmonella typhimurium ATCC 14028, Acinetobacter baumannii ATCC 19606 and 17978, Klebsiella pneumoniae ATCC 13883 and 700603, Stenotrophomonas maltophilia ATCC 13637 and Burkholderia cenocepacia J2315. In addition to reference strains, a clinical isolate of E. faecalis vancomycin-resistant (VREF, strain M), and three clinical isolates of S. aureus methicillin-resistant (MRSA, strains E, G and 11), kindly provided by Dr. Lucilla Dolzani, were used. All MRSA strains are resistant to GEN, IPM, OXA, PEN, CIP and CEF; the S. aureus E strain is also resistant to CLI and ERY. VREF strain is resistant to AMK, ATM, GEN, NET, PEN, TEC, TET, TOB and VAN.
(§2) For the assays, overnight bacterial cultures were diluted 1:30 in fresh Mueller-Hinton Broth (MHB, Difco) and incubated at 37°C with shaking for approximately 2h.
(§3) The antimicrobial activity of USCLs was determined by the Minimum Inhibitory Concentration (MIC) assay, according to the guidelines of CLSI (Clinical & Laboratory Standards Institute) and described in [30, 31]. Briefly, the assays were performed in 96-well microplates in appropriate broth (MHB or SAB). […] For bacteria, a mid-log phase bacterial suspension at 2.5 × 10^5 CFU/mL in MHB was used, and the microplates incubated at 37°C for 24h. The fungal suspension in SAB broth was used at a final concentration of 5 × 10^4 cells/mL. Microplates were then incubated at 30°C for 48h. The MIC value was taken as the lowest concentration of USCLs resulting in the complete inhibition of visible bacterial or fungal growth after appropriate incubation time. Results derive from at least three independent experiments carried out in duplicate.

The test system of data set [3] is S. aureus ATCC 25923. Format: cell-based, Staphylococcus aureus.
Description: as §1, §2, §3

In data set [4] the test system is E. coli ATCC 25922. The format is cell-based, Escherichia coli.
Description: as §1, §2, §3

Where [5] appears, read: MHB, 2.5 × 10^5 CFU/mL, 24h at 37°C, at least three independent experiments in duplicate.

≈ marks a conversion by molar mass, not a printed value. Where two headings read alike, the source gives them in different places. Where a SMILES comes first, the peptide text is derived from it. The star is where a group is joined. Myristoyl = CCCCCCCCCCCCCC(=O)*; Lauroyl = CCCCCCCCCCCC(=O)*; Decanoyl = CCCCCCCCCC(=O)*; Octanoyl = CCCCCCCC(=O)*; Hexanoyl = CCCCCC(=O)*

For `CCCCCCCCCCCC(=O)N[C@@H](CCCNC(=N)N)C(=O)N[C@@H](C)C(=O)N[C@@H](Cc1c[nH]c2ccccc12)C(=O)N[C@@H](CCCNC(=N)N)C(N)=O` [Lp-A, Lau-RAWR-NH2] (Lauroyl-RAWR-NH2), in data set [1], the Retention time came to 18.931 min. In addition, the MIC came to 25 µg/mL (≈ 32.5 µM) in data set [2] (ATCC 27853, 24 h) and 6.25 µg/mL (≈ 8.13 µM) in data set [3] (ATCC 25923, 24 h).

For the compound `CCCCCCCCCCCC(=O)N[C@@H](CCCNC(=N)N)C(=O)N[C@@H](CS)C(=O)N[C@@H](Cc1c[nH]c2ccccc12)C(=O)N[C@@H](CCCNC(=N)N)C(N)=O` [Lp-C, Lau-RCWR-NH2] (Lauroyl-RCWR-NH2), the MIC came to 200 µg/mL (≈ 250 µM) in data set [4] (ATCC 25922, 24 h); 200 µg/mL (≈ 250 µM) in data set [2] (ATCC 27853, 24 h); 50 µg/mL (≈ 62.4 µM) in data set [3] (ATCC 25923, 24 h). The compound also registered a Retention time in data set [1] of 22.492 min.

Turning to `CCCCCCCCCC(=O)N[C@@H](CCCNC(=N)N)C(=O)N[C@@H](Cc1ccccc1)C(=O)N[C@@H](Cc1c[nH]c2ccccc12)C(=O)N[C@@H](CCCNC(=N)N)C(N)=O` [Lp-F^Dec, Dec-RFWR-NH2] (Decanoyl-RFWR-NH2), the MIC was found to be 25 µg/mL (≈ 30.6 µM) in data set [4] (ATCC 25922, 24 h) and 50 µg/mL (≈ 61.2 µM) in data set [2] (ATCC 27853, 24 h). In addition, in data set [1], the Retention time is given as 22.639 min.

Consider `CCCCCC(=O)N[C@@H](CCCNC(=N)N)C(=O)N[C@@H](Cc1ccccc1)C(=O)N[C@@H](Cc1c[nH]c2ccccc12)C(=O)N[C@@H](CCCNC(=N)N)C(N)=O` [Lp-F^Hex, Hex-RFWR-NH2] (Hexanoyl-RFWR-NH2), for which the MIC in data set [4] (setting [5]) was above 400 µg/mL; in data set [2] (setting [5]), above 400 µg/mL; in data set [3] (MHB, 2.5 × 10^5 CFU/mL, 24h at 37°C, at least three independent experiments in duplicate, two values when replicates differed by one well), above 400 µg/mL. In data set [1], the Retention time was found to be 18.675 min.

In data set [1], `CCCCCCCCCCCCCC(=O)N[C@@H](CCCNC(=N)N)C(=O)N[C@@H](Cc1ccccc1)C(=O)N[C@@H](Cc1c[nH]c2ccccc12)C(=O)N[C@@H](CCCNC(=N)N)C(N)=O` [Lp-F^Myr, Myr-RFWR-NH2] (Myristoyl-RFWR-NH2) yielded a Retention time of 26.654 min. Besides, the MIC in data set [2] (ATCC 27853, 24 h) is 50 µg/mL (≈ 57.3 µM); in data set [3] (ATCC 25923, 24 h) it was 6.25 µg/mL (≈ 7.16 µM).

With `CCCCCCCC(=O)N[C@@H](CCCNC(=N)N)C(=O)N[C@@H](Cc1ccccc1)C(=O)N[C@@H](Cc1c[nH]c2ccccc12)C(=O)N[C@@H](CCCNC(=N)N)C(N)=O` [Lp-F^Oct, Oct-RFWR-NH2] (Octanoyl-RFWR-NH2), in data set [1], the Retention time was determined as 17.974 min. Moreover, the MIC amounted to 100 µg/mL (≈ 127 µM) in data set [2] (ATCC 27853, 24 h) and 100 µg/mL (≈ 127 µM) in data set [3] (ATCC 25923, 24 h).

Regarding `CCCCCCCCCCCC(=O)N[C@@H](CCCNC(=N)N)C(=O)NCC(=O)N[C@@H](Cc1c[nH]c2ccccc12)C(=O)N[C@@H](CCCNC(=N)N)C(N)=O` [Lp-G, Lau-RGWR-NH2] (Lauroyl-RGWR-NH2), the MIC stood at 25 µg/mL (≈ 33.1 µM) in data set [4] (ATCC 25922, 24 h); 50 µg/mL (≈ 66.2 µM) in data set [2] (ATCC 27853, 24 h); 6.25 µg/mL (≈ 8.28 µM) in data set [3] (ATCC 25923, 24 h). In data set [1], the Retention time is listed as 18.415 min.

With `CCCCCCCCCCCC(=O)N[C@@H](CCCNC(=N)N)C(=O)N[C@@H](Cc1c[nH]cn1)C(=O)N[C@@H](Cc1c[nH]c2ccccc12)C(=O)N[C@@H](CCCNC(=N)N)C(N)=O` [Lp-H, Lau-RHWR-NH2] (Lauroyl-RHWR-NH2), the MIC in data set [4] (ATCC 25922, 24 h) worked out at 25 µg/mL (≈ 29.9 µM); in data set [2] (ATCC 27853, 24 h), 100 µg/mL (≈ 120 µM); in data set [3] (ATCC 25923, 24 h), 6.25 µg/mL (≈ 7.48 µM). Further, the Retention time in data set [1] is listed as 21.476 min.

As for `CCCCCCCCCCCC(=O)N[C@@H](CCCNC(=N)N)C(=O)N[C@@H](CC(C)C)C(=O)N[C@@H](Cc1c[nH]c2ccccc12)C(=O)N[C@@H](CCCNC(=N)N)C(N)=O` [Lp-L, Lau-RLWR-NH2] (Lauroyl-RLWR-NH2), the MIC in data set [4] (ATCC 25922, 24 h) is 25 µg/mL (≈ 30.8 µM); in data set [2] (ATCC 27853, 24 h), 25 µg/mL (≈ 30.8 µM). The same compound gave a Retention time in data set [1] of 23.079 min.

Turning to `CCCCCCCCCCCC(=O)N[C@@H](CCCNC(=N)N)C(=O)N[C@H](C(=O)N[C@@H](Cc1c[nH]c2ccccc12)C(=O)N[C@@H](CCCNC(=N)N)C(N)=O)C(C)C` [Lp-V, Lau-RVWR-NH2] (Lauroyl-RVWR-NH2), the MIC is 12.5 (12.5) μg/mL in data set [4] (ATCC 25922, 24 h) and 6.25 (6.25) μg/mL in data set [3] (ATCC 25923, 24 h). In data set [1], this compound displayed a Retention time of 19.317 min.

Lau-RFWR-NH2 [Lp-F^Lau] registered a Retention time in data set [1] of 23.592 min.

Source of the values: paper PMC6383929, “Design, antimicrobial activity and mechanism of action of Arg-rich ultra-short cationic lipopeptides” (PLoS ONE, 2019).
